Our source for the MIC values is patent US9273084B2, “Moenomycin analogs, methods of synthesis, and uses thereof” (priority 2012, dated 2016).

Type in all cases: cell-based
In one assay the test system is S. pneumoniae #1629. Nature of the assay: MIC assay, 96 well broth dilution with MTT staining. The conditions noted are these: TSB containing 5% sheep blood, 35-37° C., 20 h. The method, then:
(§1) A 96 well plate with 100 μL test medium in all wells was prepared by handheld multipipettor. A stock solution of the antibiotic or compound in DMSO (0.05˜10 mg/mL, 5 μL) and the same medium (95 μL) were put together into column one, where the compound concentration doubled the highest one to be tested. Two columns were necessary for each compound to check the reproducibility. The compound was diluted by adding 100 μL from column one to column two with a 50% volume mix done three times; diluting serially across the plate was continued.
(§2) The day before the assay was scheduled to be run, strains were suspended in the test media (Brain Heart Infusion (BHI) containing 0.1% casamino acids for S. aureus, S. epidermidis, and E. faecalis, Trypticase Soy Broth (TSB) containing 5% sheep blood for S. pneumoniae, and Lysogeny Broth (LB) for E. coli) and incubated overnight at 35-37° C. The suspension was diluted with the same media to 1%, 100 μL of which was added to each well of the MIC plate. The MIC plate was incubated at 35-37° C. for 20 h. A thiazolyl blue tetrazolium bromide (MTT) solution (1 mg/mL-water, 50 μL) was added into each well and the resulting MIC plate was incubated at 35-37° C. for a few hours to stain wells in which cell proliferated. Growth is also visible as any turbidity in wells.
On the technique in general: In broth dilution the organism is exposed to a series of concentrations in liquid medium.

The test system of the next assay is S. pneumoniae 6303. The assay is described as above. To be noted: TSB containing 5% sheep blood, 35-37° C., 20 h. The method, then: as §1, §2
Another assay has as its system E. coli NR698. The arrangement: unit not given beside the values. To be noted: LB, 35-37° C., 20 h. How it is done:
as §1, §2

For the next assay, the system named is E. coli MG1655. Nature of the assay: MIC assay, 96 well broth dilution with MTT staining. To be noted: LB, 35-37° C., 20 h. Details: unit not given beside the values. How it is done:
as §1, §2

The subject of another assay is S. aureus 25923. The assay is described as above. Details: unit not given beside the values. To be noted: S. aureus 25923 (second strain line); BHI containing 0.1% casamino acids; 35-37° C., 20 h. The method, then:
as §1, §2

The next assay concerns S. aureus 13709. The assay is described as above. The conditions noted are these: BHI containing 0.1% casamino acids, 35-37° C., 20 h. Details: unit not given beside the values. The method, then: as §1, §2
The test system of a further assay is S. epidermidis 1228. Described as above. The arrangement: unit not given beside the values. The conditions noted are these: BHI containing 0.1% casamino acids, 35-37° C., 20 h. The method, then: as §1, §2
A further assay deals with E. faecalis 29212. The description is as above. Details: unit not given beside the values. The conditions noted are these: BHI containing 0.1% casamino acids, 35-37° C., 20 h. How it is done:
as §1, §2

In the next assay the test system is E. faecalis 33186. Described as above. The conditions noted are these: BHI containing 0.1% casamino acids, 35-37° C., 20 h. The arrangement: unit not given beside the values. How it is done:
as §1, §2

The next assay relates to S. epidermidis 700562. The assay is described as above. Details: unit not given beside the values. To be noted: BHI containing 0.1% casamino acids, 35-37° C., 20 h. The method, then:
as §1, §2

[1] abbreviates: S. aureus 13709 (first strain line).
The mark [2] stands for this setting: S. aureus 13709 (third strain line).

Structures are written as SMILES.

For the compound `CC(=O)NC1C(OC2C(COC3OC(CO)C(O)C(O)C3O)OC(OC3C(OP(=O)(O)OCC(OCC=C(C)CCC=C(C)CCC=C(C)CCC=C(C)C)C(=O)O)OC(C(N)=O)C(C)(O)C3OC(N)=O)C(NC(C)=O)C2O)OC(C)C(OC2OC(C(=O)NC3=C(O)CCC3=O)C(O)C(O)C2O)C1O.N` [1b, N1-[(2-Hydroxy-5-oxo-cyclopenten-1-yl)-(5S)-β-D-galactopyranuronamide]-(1→4)-2-acetamide-2,6-dideoxy-β-D-gluopyranosyl-(1→4)-[β-D-glucopyranosyl-(1→6)]-2-acetamido-2-deoxy-β-D-glucopyranosyl)-(1→2)-3-O-carbamoyl-1-O—{[(R)-2-carboxy-2-((2Z,6E,10E)-3,7,11,15-tetramethyl-hexadeca-2,6,10,14-tetraen-1-yloxy)ethoxy]hydroxyphosphoryl}-4-C-methyl-α-D-glucopyranuronamide], the MIC with S. pneumoniae #1629 came to 3.9; in the assay on S. pneumoniae 6303, 2.0; with E. coli NR698, 0.061; with E. coli MG1655, 63; against S. aureus 25923 it was 3.9; in the assay on S. aureus 13709 (setting [1]), 3.9. In addition, the MIC in the assay on S. aureus 13709 (setting [2]) was 2.0.

On to `CC(=O)NC1C(OC2C(COC3OC(CO)C(O)C(O)C3O)OC(OC3C(OP(=O)(O)OCC(OCC=C(C)CCC=C(C)CCC=C(C)C)C(=O)O)OC(C(N)=O)C(C)(O)C3OC(N)=O)C(NC(C)=O)C2O)OC(C)C(OC2OC(C(=O)NC3=C(O)CCC3=O)C(O)C(O)C2O)C1O.N` [1c, N1-[(2-Hydroxy-5-oxo-cyclopenten-1-yl)-(5S)-β-D-galactopyranuronamide]-(1→4)-2-acetamide-2,6-dideoxy-β-D-gluopyranosyl-(1→4)-[β-D-glucopyranosyl-(1→6)]-2-acetamido-2-deoxy-β-D-glucopyranosyl)-(1→2)-3-O-carbamoyl-1-O—{[(R)-2-carboxy-2-((2Z,6E)-3,7,11-trimethyl-dodeca-2,6,10-trien-1-yloxy)ethoxy]hydroxyphosphoryl}-4-C-methyl-α-D-glucopyranuronamide], for which the MIC against S. pneumoniae #1629 was 31; with S. pneumoniae 6303, 63; against E. coli NR698 it was 0.98; against E. coli MG1655 it was above 250; in the assay on S. epidermidis 1228, >250 >250; in the assay on E. faecalis 29212 it was 250 >250. For the same compound, the MIC against S. aureus 25923 is on record as >250 >250 250; against E. faecalis 33186, 250 >250; in the assay with S. epidermidis 700562, >250 >250; with S. aureus 13709 (setting [1]), >250 >250 250; against S. aureus 13709 (setting [2]), >250 >250 250.

`CCCCCCCCCCCCCCCCCCCCOC(COP(=O)(O)OC1OC(C(N)=O)C(C)(O)C(OC(N)=O)C1OC1OC(COC2OC(CO)C(O)C(O)C2O)C(OC2OC(C)C(OC3OC(C(=O)NC4=C(O)CCC4=O)C(O)C(O)C3O)C(O)C2NC(C)=O)C(O)C1NC(C)=O)C(=O)O.N` [1d, N1-[(2-Hydroxy-5-oxo-cyclopenten-1-yl)-(5S)-β-D-galactopyranuronamide]-(1→4)-2-acetamide-2,6-dideoxy-β-D-gluopyranosyl-(1→4)-[β-D-glucopyranosyl-(1→6)]-2-acetamido-2-deoxy-β-D-glucopyranosyl)-(1→2)-3-O-carbamoyl-1-O—{[(R)-2-carboxy-2-(eicosan-1-yloxy)ethoxy]hydroxyphosphoryl}-4-C-methyl-α-D-glucopyranuronamide]: the MIC is reported as 3.1 with S. pneumoniae #1629; 2.0 against S. pneumoniae 6303; 0.0049 in the assay with E. coli NR698; 7.8 against E. coli MG1655; 0.63 with S. epidermidis 1228; 0.63 in the assay with S. aureus 25923. Also, the MIC is 1.3 with S. epidermidis 700562, 1.3 with S. aureus 13709 (setting [1]) and 0.63 against S. aureus 13709 (setting [2]).

Turning to `CCCCCCCCCCCCCCCCCCOC(COP(=O)(O)OC1OC(C(N)=O)C(C)(O)C(OC(N)=O)C1OC1OC(COC2OC(CO)C(O)C(O)C2O)C(OC2OC(C)C(OC3OC(C(=O)NC4=C(O)CCC4=O)C(O)C(O)C3O)C(O)C2NC(C)=O)C(O)C1NC(C)=O)C(=O)O.N` [1e, N1-[(2-Hydroxy-5-oxo-cyclopenten-1-yl)-(5S)-β-D-galactopyranuronamide]-(1→4)-2-acetamide-2,6-dideoxy-β-D-gluopyranosyl-(1→4)-[β-D-glucopyranosyl-(1→6)]-2-acetamido-2-deoxy-β-D-glucopyranosyl)-(1→2)-3-O-carbamoyl-1-O—{[(R)-2-carboxy-2-(octadecan-1-yloxy)ethoxy]hydroxyphosphoryl}-4-C-methyl-α-D-glucopyranuronamide], the MIC against E. coli NR698 was found to be 0.0024; with E. coli MG1655, 63; against E. faecalis 29212 it was 0.49; with S. aureus 25923, 0.98; in the assay with E. faecalis 33186, 0.98; against S. aureus 13709 (setting [1]), 2.0. In addition, the MIC against S. aureus 13709 (setting [2]) is listed as 0.98.

For the compound `CC(=O)NC1C(OC2C(COC3OC(CO)C(O)C(O)C3O)OC(OC3C(OP(=O)(O)OCC(OCCCCCCCCCCC(F)(F)C(F)(F)C(F)(F)C(F)(F)C(F)(F)C(F)(F)C(F)(F)C(F)(F)F)C(=O)O)OC(C(N)=O)C(C)(O)C3OC(N)=O)C(NC(C)=O)C2O)OC(C)C(OC2OC(C(=O)NC3=C(O)CCC3=O)C(O)C(O)C2O)C1O.N` [1f, N1-[(2-Hydroxy-5-oxo-cyclopenten-1-yl)-(5S)-β-D-galactopyranuronamide]-(1→4)-2-acetamide-2,6-dideoxy-β-D-gluopyranosyl-(1→4)-[β-D-glucopyranosyl-(1→6)]-2-acetamido-2-deoxy-β-D-glucopyranosyl)-(1→2)-3-O-carbamoyl-1-O—{[(R)-2-carboxy-2-(11,11,12,12,13,13,14,14,15,15,16,16,17,17,18,18,18-heptadecafluoro-octadecan-1-yloxy)ethoxy]hydroxyphosphoryl}-4-C-methyl-α-D-glucopyranuronamide], the MIC against S. pneumoniae #1629 is on record as 0.98; in the assay on S. pneumoniae 6303, 2.0; with E. coli NR698 it was above 0.16; against E. coli MG1655, 250; against S. epidermidis 1228, 0.98; in the assay on E. faecalis 29212, 0.98. For the same compound, the MIC turned out to be 2.0 in the assay with S. aureus 25923; 2.0 against E. faecalis 33186; 2.0 in the assay with S. epidermidis 700562; 3.9 against S. aureus 13709 (setting [1]); 2.0 in the assay with S. aureus 13709 (setting [2]).

Consider `CCCCCCCCCCCCCCCCOC(COP(=O)(O)OC1OC(C(N)=O)C(C)(O)C(OC(N)=O)C1OC1OC(COC2OC(CO)C(O)C(O)C2O)C(OC2OC(C)C(OC3OC(C(=O)NC4=C(O)CCC4=O)C(O)C(O)C3O)C(O)C2NC(C)=O)C(O)C1NC(C)=O)C(=O)O.N` [1g, N1-[(2-Hydroxy-5-oxo-cyclopenten-1-yl)-(5S)-β-D-galactopyranuronamide]-(1→4)-2-acetamide-2,6-dideoxy-β-D-gluopyranosyl-(1→4)-[β-D-glucopyranosyl-(1→6)]-2-acetamido-2-deoxy-β-D-glucopyranosyl)-(1→2)-3-O-carbamoyl-1-O—{[(R)-2-carboxy-2-(hexadecan-1-yloxy)ethoxy]hydroxyphosphoryl}-4-C-methyl-α-D-glucopyranuronamide], for which the MIC in the assay on S. pneumoniae #1629 came out at 16; with S. pneumoniae 6303, 16; with E. coli NR698, 0.16; in the assay on E. coli MG1655 it was 250; with S. epidermidis 1228, 16; in the assay on E. faecalis 29212, 31. In addition, the MIC amounted to 16 against S. aureus 25923; 16 in the assay with E. faecalis 33186; 31 with S. epidermidis 700562; 16 with S. aureus 13709 (setting [1]); 16 against S. aureus 13709 (setting [2]).

As for `CC(=O)NC1C(OC2C(COC3OC(CO)C(O)C(O)C3O)OC(OC3C(OP(=O)(O)OCC(OCc4cccc(OCc5cccc(-c6cccc(OCc7cccc(-c8ccccc8)c7)c6)c5)c4)C(=O)O)OC(C(N)=O)C(C)(O)C3OC(N)=O)C(NC(C)=O)C2O)OC(C)C(OC2OC(C(=O)NC3=C(O)CCC3=O)C(O)C(O)C2O)C1O.N` [1h, N1-[(2-Hydroxy-5-oxo-cyclopenten-1-yl)-(5S)-β-D-galactopyranuronamide]-(1→4)-2-acetamide-2,6-dideoxy-β-D-gluopyranosyl-(1→4)-[β-D-glucopyranosyl-(1→6)]-2-acetamido-2-deoxy-β-D-glucopyranosyl)-(1→2)-3-O-carbamoyl-1-O—{[(R)-2-carboxy-2-(3-((3′-([1,1′-biphenyl]-3-ylmethoxy)-[1,1′-biphenyl]-3-yl)methoxy)phenylmethan-1-yloxy)ethoxy]hydroxyphosphoryl}-4-C-methyl-α-D-glucopyranuronamide], the MIC against S. pneumoniae #1629 came to 2.0; against S. pneumoniae 6303 it was 0.98; in the assay on E. coli NR698, 0.039; in the assay with E. coli MG1655 it was 125; against E. faecalis 29212 it was 0.39; with S. aureus 25923, 0.20. The MIC against E. faecalis 33186 came out at 0.78; with S. aureus 13709 (setting [1]), 0.39; with S. aureus 13709 (setting [2]), 0.20.
